{
  "source": "paper PMC7827406",
  "about": "“Structure–Activity Relationship (SAR) Study of Spautin-1 to Entail the Discovery of Novel NEK4 Inhibitors” (International Journal of Molecular Sciences, 2021)",
  "assay_in_all_cases": "biochemical",
  "parameters_in_all_cases": "Eurofins KinaseProfiler full panel at Km ATP, residual kinase activity (%) relative to DMSO",
  "key": {"[1]": {"molecular_target": "AAK1(h) (Homo sapiens, UniProt Q2M2I8)", "sequence (Q2M2I8 whole entry)": "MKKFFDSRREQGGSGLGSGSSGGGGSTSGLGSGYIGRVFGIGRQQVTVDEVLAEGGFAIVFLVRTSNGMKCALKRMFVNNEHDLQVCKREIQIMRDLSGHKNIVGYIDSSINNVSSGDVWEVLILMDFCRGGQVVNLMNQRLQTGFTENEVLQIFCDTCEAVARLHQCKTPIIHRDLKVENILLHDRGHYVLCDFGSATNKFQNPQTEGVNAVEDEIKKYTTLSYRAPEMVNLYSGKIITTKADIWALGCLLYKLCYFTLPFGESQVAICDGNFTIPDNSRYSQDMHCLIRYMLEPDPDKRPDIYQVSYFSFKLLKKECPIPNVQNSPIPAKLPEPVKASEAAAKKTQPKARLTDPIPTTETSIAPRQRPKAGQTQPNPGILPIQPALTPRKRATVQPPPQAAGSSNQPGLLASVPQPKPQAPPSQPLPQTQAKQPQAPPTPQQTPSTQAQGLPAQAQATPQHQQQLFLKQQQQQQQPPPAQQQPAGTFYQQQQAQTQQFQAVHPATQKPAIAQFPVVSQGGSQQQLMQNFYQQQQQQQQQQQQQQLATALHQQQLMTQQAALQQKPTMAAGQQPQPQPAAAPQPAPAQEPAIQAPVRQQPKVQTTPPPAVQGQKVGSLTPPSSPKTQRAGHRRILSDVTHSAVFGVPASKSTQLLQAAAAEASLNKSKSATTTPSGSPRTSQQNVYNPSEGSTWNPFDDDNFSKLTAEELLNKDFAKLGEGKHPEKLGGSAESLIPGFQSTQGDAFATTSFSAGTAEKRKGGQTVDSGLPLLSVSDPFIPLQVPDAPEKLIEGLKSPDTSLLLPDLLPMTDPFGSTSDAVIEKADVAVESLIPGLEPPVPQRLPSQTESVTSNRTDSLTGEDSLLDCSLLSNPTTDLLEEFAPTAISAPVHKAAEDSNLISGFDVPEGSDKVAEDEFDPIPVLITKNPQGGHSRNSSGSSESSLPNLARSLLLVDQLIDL", "outline": "(§1)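 Compounds screened at 10 µM in radiometric kinase activity assays at Km ATP, reported as remaining kinase activity (%). A KINOMEscan competition-binding screen at 10 µM measured DNA-tagged kinase retained on immobilized active-site ligand by qPCR.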"}, "[2]": {"molecular_target": "T1, MEKK3(h) (Homo sapiens, UniProt Q99759)", "T1 construct": "gene MAP3K3", "T1 sequence (Q99759 1-626)": "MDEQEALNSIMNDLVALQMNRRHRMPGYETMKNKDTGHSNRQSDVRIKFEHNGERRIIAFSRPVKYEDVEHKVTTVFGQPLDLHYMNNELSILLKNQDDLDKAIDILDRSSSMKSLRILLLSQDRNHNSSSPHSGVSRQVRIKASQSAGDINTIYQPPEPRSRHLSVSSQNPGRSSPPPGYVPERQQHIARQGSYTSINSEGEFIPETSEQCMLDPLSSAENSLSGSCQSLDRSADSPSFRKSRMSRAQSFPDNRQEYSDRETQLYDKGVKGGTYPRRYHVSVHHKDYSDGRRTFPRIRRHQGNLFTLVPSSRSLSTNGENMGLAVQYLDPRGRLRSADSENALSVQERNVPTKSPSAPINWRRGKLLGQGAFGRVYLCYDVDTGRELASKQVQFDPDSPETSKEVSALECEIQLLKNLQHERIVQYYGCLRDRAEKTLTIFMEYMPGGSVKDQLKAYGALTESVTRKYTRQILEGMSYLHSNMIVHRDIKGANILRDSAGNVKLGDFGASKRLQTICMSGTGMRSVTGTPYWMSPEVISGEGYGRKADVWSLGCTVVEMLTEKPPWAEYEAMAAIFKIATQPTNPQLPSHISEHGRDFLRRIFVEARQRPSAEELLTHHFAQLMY", "outline": "as §1"}, "[3]": {"molecular_target": "T2, NEK11(h) (Homo sapiens, UniProt Q8NG66)", "T2 sequence (Q8NG66 1-645)": "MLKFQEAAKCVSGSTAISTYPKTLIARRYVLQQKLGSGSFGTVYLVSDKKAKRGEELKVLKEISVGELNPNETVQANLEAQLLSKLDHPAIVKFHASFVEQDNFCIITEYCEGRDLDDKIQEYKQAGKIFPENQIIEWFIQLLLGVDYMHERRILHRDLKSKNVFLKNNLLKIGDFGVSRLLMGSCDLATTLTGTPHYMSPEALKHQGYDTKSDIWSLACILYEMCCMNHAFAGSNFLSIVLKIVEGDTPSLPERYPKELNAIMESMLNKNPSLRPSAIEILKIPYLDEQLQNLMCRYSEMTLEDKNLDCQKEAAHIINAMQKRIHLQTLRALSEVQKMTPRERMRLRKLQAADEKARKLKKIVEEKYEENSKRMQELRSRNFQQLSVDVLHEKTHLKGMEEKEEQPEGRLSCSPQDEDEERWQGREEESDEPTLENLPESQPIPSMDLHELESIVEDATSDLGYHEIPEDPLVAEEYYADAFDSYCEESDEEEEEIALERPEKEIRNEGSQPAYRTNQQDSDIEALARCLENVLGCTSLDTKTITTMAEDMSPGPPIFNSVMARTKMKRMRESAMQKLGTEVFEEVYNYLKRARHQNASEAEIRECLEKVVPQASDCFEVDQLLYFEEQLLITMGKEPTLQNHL", "outline": "as §1"}, "[4]": {"molecular_target": "PAK4(h) (Homo sapiens, UniProt O96013)", "sequence (O96013 whole entry)": "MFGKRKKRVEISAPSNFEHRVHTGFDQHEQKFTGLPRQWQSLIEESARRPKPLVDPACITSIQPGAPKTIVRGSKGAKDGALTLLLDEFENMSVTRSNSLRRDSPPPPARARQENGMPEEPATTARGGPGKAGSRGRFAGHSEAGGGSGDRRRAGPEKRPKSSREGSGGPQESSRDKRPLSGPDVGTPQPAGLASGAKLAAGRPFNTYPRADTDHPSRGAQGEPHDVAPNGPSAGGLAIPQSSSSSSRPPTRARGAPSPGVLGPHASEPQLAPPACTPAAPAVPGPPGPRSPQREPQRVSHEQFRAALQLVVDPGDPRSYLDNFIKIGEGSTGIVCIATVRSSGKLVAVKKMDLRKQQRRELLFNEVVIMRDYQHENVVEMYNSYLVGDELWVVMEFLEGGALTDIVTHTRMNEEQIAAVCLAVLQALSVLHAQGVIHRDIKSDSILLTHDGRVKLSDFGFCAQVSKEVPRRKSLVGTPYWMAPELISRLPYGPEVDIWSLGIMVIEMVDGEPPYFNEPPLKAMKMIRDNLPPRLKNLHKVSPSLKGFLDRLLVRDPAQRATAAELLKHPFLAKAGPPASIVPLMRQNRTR", "outline": "as §1"}, "[5]": {"molecular_target": "T3, PAR-1Bα(h) (Homo sapiens, UniProt Q7KZI7)", "T3 construct": "gene MARK2", "T3 sequence (Q7KZI7 whole entry)": "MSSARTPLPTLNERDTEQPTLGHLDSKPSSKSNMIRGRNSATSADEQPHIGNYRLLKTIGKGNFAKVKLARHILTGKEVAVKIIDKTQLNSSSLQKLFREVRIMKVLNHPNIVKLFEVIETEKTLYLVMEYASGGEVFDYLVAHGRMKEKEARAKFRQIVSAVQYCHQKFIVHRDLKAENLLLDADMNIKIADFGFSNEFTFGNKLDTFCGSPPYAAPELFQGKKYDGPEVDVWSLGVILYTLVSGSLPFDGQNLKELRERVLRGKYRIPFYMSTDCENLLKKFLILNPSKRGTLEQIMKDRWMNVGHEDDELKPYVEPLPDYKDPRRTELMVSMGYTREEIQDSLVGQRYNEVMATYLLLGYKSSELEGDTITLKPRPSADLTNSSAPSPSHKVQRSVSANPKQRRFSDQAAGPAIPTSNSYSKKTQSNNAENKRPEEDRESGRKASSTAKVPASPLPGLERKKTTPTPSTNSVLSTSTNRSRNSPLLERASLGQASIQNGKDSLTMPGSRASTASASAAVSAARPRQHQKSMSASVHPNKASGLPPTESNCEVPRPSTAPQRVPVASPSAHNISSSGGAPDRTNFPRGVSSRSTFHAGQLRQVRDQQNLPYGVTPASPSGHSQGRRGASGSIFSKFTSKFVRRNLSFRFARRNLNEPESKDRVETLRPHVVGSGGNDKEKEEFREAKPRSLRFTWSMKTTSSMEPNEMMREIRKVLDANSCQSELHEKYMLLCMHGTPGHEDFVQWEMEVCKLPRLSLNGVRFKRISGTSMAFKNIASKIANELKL", "outline": "as §1"}, "[6]": {"molecular_target": "STK33(h) (Homo sapiens, UniProt Q9BYT3)", "sequence (Q9BYT3 whole entry)": "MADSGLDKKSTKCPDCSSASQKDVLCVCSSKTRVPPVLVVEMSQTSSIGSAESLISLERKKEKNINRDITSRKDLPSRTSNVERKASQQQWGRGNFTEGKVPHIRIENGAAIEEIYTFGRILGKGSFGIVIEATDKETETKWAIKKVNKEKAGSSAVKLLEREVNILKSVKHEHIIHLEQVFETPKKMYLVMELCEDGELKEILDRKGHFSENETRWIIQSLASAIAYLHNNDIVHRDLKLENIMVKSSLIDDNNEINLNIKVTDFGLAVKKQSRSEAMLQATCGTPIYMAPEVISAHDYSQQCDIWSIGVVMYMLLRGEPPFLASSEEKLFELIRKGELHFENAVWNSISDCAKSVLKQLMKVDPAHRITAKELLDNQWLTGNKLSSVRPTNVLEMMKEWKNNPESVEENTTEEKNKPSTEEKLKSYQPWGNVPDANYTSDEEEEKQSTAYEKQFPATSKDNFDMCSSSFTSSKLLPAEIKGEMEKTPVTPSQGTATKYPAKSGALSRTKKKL", "outline": "as §1"}, "[7]": {"molecular_target": "TNIK(h) (Homo sapiens, UniProt Q9UKE5)", "sequence (Q9UKE5 whole entry)": "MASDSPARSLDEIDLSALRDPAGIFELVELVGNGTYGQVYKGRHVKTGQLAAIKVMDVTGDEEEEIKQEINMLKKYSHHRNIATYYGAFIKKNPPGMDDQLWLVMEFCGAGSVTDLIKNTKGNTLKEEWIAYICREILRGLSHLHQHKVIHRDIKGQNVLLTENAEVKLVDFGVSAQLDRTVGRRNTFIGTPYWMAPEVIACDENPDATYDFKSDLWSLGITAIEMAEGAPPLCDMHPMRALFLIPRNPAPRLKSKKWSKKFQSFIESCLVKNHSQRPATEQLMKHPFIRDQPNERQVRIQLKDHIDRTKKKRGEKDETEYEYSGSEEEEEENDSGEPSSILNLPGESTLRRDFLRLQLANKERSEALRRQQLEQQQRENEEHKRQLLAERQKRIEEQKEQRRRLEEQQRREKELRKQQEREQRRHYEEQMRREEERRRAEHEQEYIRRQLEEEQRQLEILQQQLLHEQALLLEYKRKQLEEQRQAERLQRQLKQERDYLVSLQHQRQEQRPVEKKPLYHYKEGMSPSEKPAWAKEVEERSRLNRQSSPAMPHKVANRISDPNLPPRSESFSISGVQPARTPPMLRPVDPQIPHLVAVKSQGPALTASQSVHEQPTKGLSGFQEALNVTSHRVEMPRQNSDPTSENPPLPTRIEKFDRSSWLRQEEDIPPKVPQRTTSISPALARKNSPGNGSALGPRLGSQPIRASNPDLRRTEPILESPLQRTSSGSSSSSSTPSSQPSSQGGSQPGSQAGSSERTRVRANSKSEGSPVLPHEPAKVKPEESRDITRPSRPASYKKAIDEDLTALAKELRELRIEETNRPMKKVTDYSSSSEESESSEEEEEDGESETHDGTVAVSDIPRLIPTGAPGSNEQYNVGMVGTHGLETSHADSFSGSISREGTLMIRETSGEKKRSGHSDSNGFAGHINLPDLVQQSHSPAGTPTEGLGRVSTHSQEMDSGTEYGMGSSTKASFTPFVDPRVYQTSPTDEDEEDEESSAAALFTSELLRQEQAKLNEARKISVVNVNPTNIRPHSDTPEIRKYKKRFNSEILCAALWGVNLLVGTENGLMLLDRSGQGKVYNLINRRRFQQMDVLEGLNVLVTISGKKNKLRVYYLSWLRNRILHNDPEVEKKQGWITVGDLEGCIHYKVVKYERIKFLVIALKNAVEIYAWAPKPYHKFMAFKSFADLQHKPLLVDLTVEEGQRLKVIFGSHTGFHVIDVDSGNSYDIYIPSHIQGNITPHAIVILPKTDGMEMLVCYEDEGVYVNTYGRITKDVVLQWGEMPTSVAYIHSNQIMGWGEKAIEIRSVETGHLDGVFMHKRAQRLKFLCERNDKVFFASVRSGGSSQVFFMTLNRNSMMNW", "outline": "as §1"}, "[8]": {"molecular_target": "T4, TRB2(h) (Homo sapiens, UniProt Q92519)", "T4 construct": "gene TRIB2", "T4 sequence (Q92519 1-343)": "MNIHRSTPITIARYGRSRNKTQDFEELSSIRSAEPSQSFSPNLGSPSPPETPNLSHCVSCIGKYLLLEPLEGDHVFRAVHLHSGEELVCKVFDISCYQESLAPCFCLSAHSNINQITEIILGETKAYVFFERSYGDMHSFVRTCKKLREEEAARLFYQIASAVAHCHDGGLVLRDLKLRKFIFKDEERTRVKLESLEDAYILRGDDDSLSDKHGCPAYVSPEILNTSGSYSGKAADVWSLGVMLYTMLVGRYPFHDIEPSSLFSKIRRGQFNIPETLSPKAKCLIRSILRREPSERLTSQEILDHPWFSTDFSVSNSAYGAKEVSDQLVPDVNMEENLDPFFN", "outline": "as §1"}, "[9]": {"settings": "read-out: Residual activity (%) 5ay"}, "[10]": {"settings": "read-out: Residual activity (%) Spautin-1 5aa"}, "[11]": {"settings": "read-out: Residual activity (%) 5at"}, "[12]": {"settings": "read-out: Residual activity (%) 5as"}},
  "note": "Where two headings read alike, the source gives them in different places.",
  "data": [
    {"smiles": "COc1ccc2ncnc(Nc3cccc(F)c3)c2c1", "note": "[5ay, N-(3-Fluorophenyl)-6-Methoxy-4-Quinazolinamine]", "values": [
      {"measurement": "remaining activity at 10 µM", "setting": "[1]; [9]", "value": 53, "unit": "%"},
      {"measurement": "remaining activity at 10 µM", "setting": "[2]; [9]", "value": 83, "unit": "%"},
      {"measurement": "remaining activity at 10 µM", "setting": "[3]; [9]", "value": 53, "unit": "%"},
      {"measurement": "remaining activity at 10 µM", "setting": "[4]; [9]", "value": 83, "unit": "%"},
      {"measurement": "remaining activity at 10 µM", "setting": "[5]; [9]", "value": 83, "unit": "%"},
      {"measurement": "remaining activity at 10 µM", "setting": "[6]; [9]", "value": 77, "unit": "%"},
      {"measurement": "remaining activity at 10 µM", "setting": "[7]; [9]", "value": 65, "unit": "%"},
      {"measurement": "remaining activity at 10 µM", "setting": "[8]; [9]", "value": 31, "unit": "%"}
    ]},
    {"smiles": "Fc1ccc(CNc2ncnc3ccc(F)cc23)cc1", "note": "[5aa, 6-Fluoro-N-(4-fluorobenzyl)-4-Quinazolinamine]", "values": [
      {"measurement": "remaining activity at 10 µM", "setting": "[1]; [10]", "value": 95, "unit": "%"},
      {"measurement": "remaining activity at 10 µM", "setting": "[2]; [10]", "value": 93, "unit": "%"},
      {"measurement": "remaining activity at 10 µM", "setting": "[3]; [10]", "value": 41, "unit": "%"},
      {"measurement": "remaining activity at 10 µM", "setting": "[4]; [10]", "value": 90, "unit": "%"},
      {"measurement": "remaining activity at 10 µM", "setting": "[5]; [10]", "value": 84, "unit": "%"},
      {"measurement": "remaining activity at 10 µM", "setting": "[7]; [10]", "value": 72, "unit": "%"},
      {"measurement": "remaining activity at 10 µM", "setting": "[8]; [10]", "value": 69, "unit": "%"}
    ]},
    {"smiles": "Fc1ccc2ncnc(NCCc3ccc(Cl)cc3)c2c1", "note": "[5at, N-[2-(4-Chlorophenyl)Ethyl]-6-Fluoro-4-Quinazolinamine]", "values": [
      {"measurement": "remaining activity at 10 µM", "setting": "[1]; [11]", "value": 72, "unit": "%"},
      {"measurement": "remaining activity at 10 µM", "setting": "[2]; [11]", "value": 98, "unit": "%"},
      {"measurement": "remaining activity at 10 µM", "setting": "[3]; [11]", "value": 45, "unit": "%"},
      {"measurement": "remaining activity at 10 µM", "setting": "[4]; [11]", "value": 90, "unit": "%"},
      {"measurement": "remaining activity at 10 µM", "setting": "[5]; [11]", "value": 101, "unit": "%"},
      {"measurement": "remaining activity at 10 µM", "setting": "[6]; [11]", "value": 100, "unit": "%"},
      {"measurement": "remaining activity at 10 µM", "setting": "[7]; [11]", "value": 63, "unit": "%"},
      {"measurement": "remaining activity at 10 µM", "setting": "[8]; [11]", "value": 60, "unit": "%"}
    ]},
    {"smiles": "Fc1ccc(CCNc2ncnc3ccc(F)cc23)cc1", "note": "[5as, 6-Fluoro-N-[2-(4-Fluorophenyl)Ethyl]-4-Quinazolinamine]", "values": [
      {"measurement": "remaining activity at 10 µM", "setting": "[1]; [12]", "value": 81, "unit": "%"},
      {"measurement": "remaining activity at 10 µM", "setting": "[2]; [12]", "value": 107, "unit": "%"},
      {"measurement": "remaining activity at 10 µM", "setting": "[3]; [12]", "value": 71, "unit": "%"},
      {"measurement": "remaining activity at 10 µM", "setting": "[4]; [12]", "value": 92, "unit": "%"},
      {"measurement": "remaining activity at 10 µM", "setting": "[5]; [12]", "value": 86, "unit": "%"},
      {"measurement": "remaining activity at 10 µM", "setting": "[6]; [12]", "value": 90, "unit": "%"},
      {"measurement": "remaining activity at 10 µM", "setting": "[7]; [12]", "value": 83, "unit": "%"},
      {"measurement": "remaining activity at 10 µM", "setting": "[8]; [12]", "value": 65, "unit": "%"}
    ]}
  ]
}
